Here are results for three compounds from patent US20060127967A1, “In vitro test for studying compound predicting pharmacologic and/or harmacokinetic and/or pharmacodynamic parameters of a compound” (priority 2002, published 2006).

One data set has as its system Tetrahymena thermophila. Nature of the data set: Tetrahymena thermophila cell area, computerized morphometric/image analysis bioassay. Format: cell-based. As to conditions: 6 hours exposure, various concentrations, at least 100 cells per sample. The method, then: Tetrahymena thermophila was grown axenically at 34 ?C in proteosepeptone yeast salts (PPYS) complex medium. Test cultures were prepared by inoculating the protozoa from a stock culture into PPYS to produce initial culture of ˜5000 cell/ml. The cell cultures were then grown for 24 hours at 34 ?C. In the beginning of the experiment the culture was transferred into 3 ml test tubes and exposed to the various concentrations of the tested material. Samples were withdrawn 6 hours following the exposure to the tested material. The samples fixed with formaldehyde solution were placed on the hemocytometer, observed under microscope and the area of tetrahymena was evaluated by computerized morphometric system/image analysis program. For each sample at least 100 cells were evaluated.

A short description of data set [1]: Permeation through Integra bi-layer membrane and human skin in Valia-Chien diffusion cells. Format: in vitro ADME. Particulars: aqueous solution pH 7.2, receiver Tris buffer pH 7.2, 8 hours, permeation area 0.64 cm^2, HCl. The method, then:
Permeation studies with aqueous solution of Propranolol HCl (pH 7.2) through Integra and human skin were carried out in Valia-Chien diffusion cells. The effective permeation area was 0.64 cm^2. The receiver compartment contained Tris buffer (pH 7.2) and the experiment lasted for 8 hours. The samples were withdrawn at 0, 1, 2, 4, 6 and 8 hours and the quantity of propranolol HCl permeated through the membrane was analyzed by validated HPLC method.

Structures can show the parent of a compound that is named as a salt.

Consider `C=CCc1ccccc1OCC(O)CNC(C)C` (stereo not shown) [Alprenolol hydrochloride], for which the “change in Tetrahymena thermophila cell area with increasing drug concentration in the medium” value in the data set on Tetrahymena thermophila is “decrease in the cell area”.

For `CC(C)NCC(O)COc1cccc2ccccc12` (stereo not shown) [Propranolol HCl], the “permeation constant (Kp) through Integra as compared to human skin” value in data set [1] is “close similarity”; in data set [1] (listed as propranolol), “similar”.

Regarding `O=C([O-])c1ccccc1O.[Na+]` [sodium salicylate], the “change in Tetrahymena thermophila cell area with increasing drug concentration in the medium” value in the data set on Tetrahymena thermophila is listed as “decrease in cell area”.
